The results in this text go back to US20070072807A1, “Method of screening compounds” (SmithKline Beecham Corporation & SmithKline Beecham p.l.c., priority 1999, published 2007).

In general, pKi refers to the negative decadic logarithm of the Ki, by convention in mol/L. As usually defined, the pIC50 is −log10 of the IC50, conventionally taken in molar units. A lower pIC50 goes with a high IC50. As a reminder, the pKd is the negative decadic logarithm of the Kd, by convention in mol/L.

The target of test [1] is T1, Asp1 (Homo sapiens, UniProt Q9Y5Z0).
T1 construct: A cDNA fragment encoding Asp1(EP0848062), amino acids 1 to 473; made in house; host or cells: CHO E1A (Chinese hamster ovary)
Kind of test: Asp1 fluorescence polarisation (competition) binding assay. How it is done:
A competition assay has also been designed to identify compounds acting at the Asp1 active site. The hydroxyethylene inhibitor (I) has been modified by addition of 5-, 6-rhodamine green to the free N-terminal amine of the compound to create labelled ligand (II). [drawing 5]
The resulting compound was tested experimentally as follows to determine the Kd with Asp1-Fc enzyme, prepared as above.
A three dimensional analysis varying enzyme and ligand (II) was performed. Ligand concentration range was 1, 3, 10, 30 and 100 nM. Enzyme concentration range was from 100 nM down in serial twofold dilutions (11 dilutions+no enzyme control).
Ligand of appropriate concentration was prepared in 5% DMSO. The enzyme solutions were prepared in 2 times (×2) assay buffer (where ×1=50 mM sodium acetate, 20 mM sodium chloride, 5% glycerol, 0.1% CHAPS, pH 3.8). 5 ul of the enzyme solution (of varying concentration) was mixed with 5 ul of the ligand (of varying concentration) in a low volume 384 microtitre plate. The samples were allowed to equilibrate for 15 min before the fluorescence polarisation was read on an LJL ACQUEST platereader.
The Anisotropy values were plotted and the Kd for the tight binding interaction obtained.
Enzyme (at a fixed concentration of 50 nM), ligand (II) (at a fixed concentration of 5.0 nM) and test compound (5 uM down in twofold serial dilutions) were mixed in ×1 assay buffer in a final assay volume of 10 ul and allowed to equilibrate for 3 hrs. The fluorescence polarisation was then read. The experiment was performed in duplicate.

Test [2] concerns the target T1, Asp1. The experiment in a line: Fluorescence Resonance Energy Transfer (FRET) cleavage assay for Asp1. The format is biochemical. From the text: Fluorescence Resonsance Energy Transfer (FRET) Cleavage Assay for Asp1
A peptide (X) based on the sequence of the Swedish variant APP beta-site sequence has been doubly labelled for use in a FRET assay. [drawing 2] [drawing 3] This peptide includes the 11 residues spanning the Swedish variant beta-cleavage site (Ile-Ser-Glu-Val-Asn-Leu-Asp-Ala-Glu-Phe-Arg SEQ ID NO:2) with an N-terminal rhodamine green group and C-terminal tetramethylrhodamine group. This would allow cleavage of the intervening peptide sequence by Asp1 to be monitored by energy transfer between the two fluorescent groups.
In practice assays were conducted as follows:
The fluorescent peptide substrate (0.5 uM) was incubated with Asp1-Fc enzyme prepared as described above in a buffer containing 50 mM sodium acetate, 20 mM sodium chloride, 5% glycerol, 0.1% CHAPS (3-[(3-Cholamidopropyl)dimethylammonio]-1-propane-sulphonate), pH 3.8). The assays were started by addition of enzyme (50 nM final concentration) and cleavage monitored on a fluorescent platereader with 485 nm excitation, 538 nm emission. The C-terminal TAMRA group of the peptide acted as effective quencher, thus an increase in rhodamine green intensity was observed upon cleavage.
This assay was used to determine IC50 and Ki values for compounds of interest. […] Asp1 Fluorescence Polarisation Assay.

pIC50, pKd, pKi: −log10 of the molar value. Numbered stars: 1 amine (or outer) side, 2 acyl side, 3 side chain; on linkers, the order of the positions; unused ones are H or OH. Square brackets hold non-standard residues; d marks the D form. Peptide text beside a SMILES is read from it. * marks the point of attachment. Hexanoyl(5S-NH,4S-OH,6-Ph) = O=C(CC[C@H](O)[C@H](Cc1ccccc1)N[*:1])[*:2]; X2 = Nc1ccc2c(c1)Oc1ccccc1C21OC(=O)c2cc(C(=O)*)ccc21; X1 = CC(C)C[C@H](N[*:1])[C@@H](O)CCC(=O)[*:2]

T1 sequence (Q9Y5Z0 with tags, fused parts or gaps limits assumed): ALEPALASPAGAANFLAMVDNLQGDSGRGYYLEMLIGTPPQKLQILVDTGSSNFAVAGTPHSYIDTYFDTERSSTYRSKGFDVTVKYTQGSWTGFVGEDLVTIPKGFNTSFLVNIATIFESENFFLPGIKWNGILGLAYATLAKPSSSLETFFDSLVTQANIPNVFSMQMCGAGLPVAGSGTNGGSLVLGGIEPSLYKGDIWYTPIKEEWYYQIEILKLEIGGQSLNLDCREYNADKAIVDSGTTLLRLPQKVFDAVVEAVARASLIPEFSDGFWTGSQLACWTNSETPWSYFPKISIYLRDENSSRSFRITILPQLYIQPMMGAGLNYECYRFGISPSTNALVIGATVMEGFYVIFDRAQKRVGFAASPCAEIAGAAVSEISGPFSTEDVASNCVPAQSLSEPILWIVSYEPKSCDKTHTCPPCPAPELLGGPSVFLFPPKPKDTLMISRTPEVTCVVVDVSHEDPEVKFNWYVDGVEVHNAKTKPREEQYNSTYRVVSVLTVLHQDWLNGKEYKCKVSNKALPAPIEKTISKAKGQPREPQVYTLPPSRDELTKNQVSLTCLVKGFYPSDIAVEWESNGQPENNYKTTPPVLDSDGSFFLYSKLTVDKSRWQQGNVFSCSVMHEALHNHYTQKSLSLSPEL

With `CC(C)C[C@H](NC(=O)[C@H](C)NC(=O)[C@@H](NC(=O)[C@@H](N)CCC(=O)O)C(C)C)[C@@H](O)CCC(=O)N[C@@H](C)C(=O)N[C@@H](CCC(=O)O)C(=O)N[C@@H](Cc1ccccc1)C(=O)O` [Compound (III)] (H-EVA[X1]AEF-OH), the “displacement of the fluorescent ligand (II)” value on Asp1 [1] (at the highest concentrations of test compound (5 uM down in twofold serial dilutions)) is “Complete displacement”. Also, at Asp1 [1] (competition against ligand (II) 5.0 nM, enzyme 50 nM, equilibrated 3 hrs, duplicate), the negative-log Ki (pKi) is 7.30. This compound also had a negative-log IC50 (pIC50) against Asp1 [2] (FRET cleavage assay, Asp1-Fc enzyme) of 7.22.

`CC(C)[C@H](NC(=O)[C@@H](N)CCC(=O)O)C(=O)N[C@@H](CC(N)=O)C(=O)N[C@@H](Cc1ccccc1)[C@@H](O)CCC(=O)N[C@@H](C)C(=O)N[C@@H](CCC(=O)O)C(=O)N[C@@H](Cc1ccccc1)C(=O)O` [compound (I)] (H-EVN[Hexanoyl(5S-NH,4S-OH,6-Ph)]AEF-OH): the pKi at Asp1 [2] (Asp1-Fc enzyme 50 nM, fluorescent peptide substrate 0.5 uM, pH 3.8) is 8.60.

Regarding `CC(C)[C@H](NC(=O)[C@H](CCC(=O)O)NC(=O)c1ccc2c(c1)C(=O)OC21c2ccccc2Oc2cc(N)ccc21)C(=O)N[C@@H](CC(N)=O)C(=O)N[C@@H](Cc1ccccc1)[C@@H](O)CCC(=O)N[C@@H](C)C(=O)N[C@@H](CCC(=O)O)C(=O)N[C@@H](Cc1ccccc1)C(=O)O` (stereo partly drawn) [ligand (II)] (X2-EVN[Hexanoyl(5S-NH,4S-OH,6-Ph)]AEF-OH), on Asp1 [1] (tight binding interaction of labelled ligand with Asp1-Fc enzyme, from anisotropy values, pH 3.8), the pKd was 10.12.
